For assay [1], the system named is A549. Kind of assay: viability loss in A549 cells – cell-based, plate reader, cherry-pick samples, cytotoxicity control, dose response (AID 687028). The format is functional. The following applies: Homo sapiens.
Assay [2] deals with T1, Scavenger receptor class B member 1 (Mus musculus, UniProt Q61009). The experiment in a line: blockers of DiI-HDL lipid transfer via SR-BI – cell-based, ldlA[mSR-BI] CHO, DiI fluorescence, dry powder, set 10, dose response (AID 624029). The assay is classed as functional.
T1 sequence (Q61009 whole entry): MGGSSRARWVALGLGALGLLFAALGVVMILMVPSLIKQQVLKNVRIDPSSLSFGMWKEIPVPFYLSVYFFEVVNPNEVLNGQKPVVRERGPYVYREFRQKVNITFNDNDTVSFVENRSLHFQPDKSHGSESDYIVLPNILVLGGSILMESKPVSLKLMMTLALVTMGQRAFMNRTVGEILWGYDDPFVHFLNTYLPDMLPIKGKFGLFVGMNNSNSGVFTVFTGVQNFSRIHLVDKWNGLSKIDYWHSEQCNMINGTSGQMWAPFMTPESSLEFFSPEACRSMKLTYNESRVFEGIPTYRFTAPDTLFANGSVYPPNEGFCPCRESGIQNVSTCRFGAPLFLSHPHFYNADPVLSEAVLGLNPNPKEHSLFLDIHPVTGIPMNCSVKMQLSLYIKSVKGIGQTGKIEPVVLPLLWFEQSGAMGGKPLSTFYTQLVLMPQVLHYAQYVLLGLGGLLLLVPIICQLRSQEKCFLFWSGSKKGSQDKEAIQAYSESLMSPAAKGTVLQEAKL
The target in assay [3] is T1, Scavenger receptor class B member 1. The experiment in a line: mouse SR-BI DiI-HDL transfer blockers – ldlA[mSR-BI] CHO cells, fluorescence plate reader, dry powder, set 9, dose response (AID 623880). The assay is classed as functional, cell-based.
A short description of assay [4]: cell viability loss, ATP luminescence – CellTiter-Glo, 24 h, powder samples, set 7, cytotoxicity control for SR-BI HDL uptake inhibitor project, dose response (AID 624026). The assay is classed as functional, cell-based. For orientation: In ATP-based viability assays light output follows the ATP content of the culture.
Assay [5] concerns the target T2, Sentrin-specific protease 1 (Homo sapiens, UniProt Q9P0U3). Kind of assay: SENP1 catalytic domain blockers, concentration series – biochemical, kinetic FRET, dose response (AID 651697). The assay is classed as functional. The following applies: read-out: IC50_Mean.
Assay [6] concerns the target Large T antigen (Simian virus 40, UniProt P03070). The assay is classed as functional, Betapolyomavirus macacae.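 Note: Confirmatory-stage PubChem screen for compounds that inhibit SV40 T antigen.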
The target of assay [7] is T2, Sentrin-specific protease 1. Kind of assay: Dose response confirmation of small molecule inhibitors of the catalytic domain of the SUMO protease, SENP1 in a FRET assay. The format is functional. Conditions: read-out: IC50_Mean.
The target in assay [8] is T3, Beta-lactamase (Pseudomonas aeruginosa, UniProt Q79MP6). The experiment in a line: […] counterscreen for selective VIM-2 inhibitors: dose response biochemical high throughput screening assay to identify inhibitors of IMP-1 metallo-beta-lactamase.
T3 sequence (Q79MP6 whole entry): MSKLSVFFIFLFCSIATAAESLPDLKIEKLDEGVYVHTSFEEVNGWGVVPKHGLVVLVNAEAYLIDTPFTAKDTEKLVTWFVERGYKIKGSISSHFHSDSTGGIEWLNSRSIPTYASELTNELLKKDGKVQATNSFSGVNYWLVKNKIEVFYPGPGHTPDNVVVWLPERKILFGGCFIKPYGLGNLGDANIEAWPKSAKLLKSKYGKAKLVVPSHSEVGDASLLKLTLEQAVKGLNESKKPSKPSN
Assay [9] concerns the target Beta-lactamase (Salmonella choleraesuis (strain SC-B67), UniProt Q5J463). Kind of assay: Epi-absorbance-based counterscreen for selective VIM-2 inhibitors: dose response biochemical high throughput screening assay to identify inhibitors of TEM-1 serine-beta-lactamase. On the technique in general: The purpose of a counterscreen is to sort out artefacts and off-target activity.

In assay [10] the target is T4, Beta Lactamase (Pseudomonas aeruginosa, UniProt Q932Y6). Kind of assay: concentration-dependent VIM-2 enzyme inhibition – biochemical, epi-absorbance readout, selective inhibitors, dose response (AID 1919).
T4 sequence (Q932Y6 whole entry): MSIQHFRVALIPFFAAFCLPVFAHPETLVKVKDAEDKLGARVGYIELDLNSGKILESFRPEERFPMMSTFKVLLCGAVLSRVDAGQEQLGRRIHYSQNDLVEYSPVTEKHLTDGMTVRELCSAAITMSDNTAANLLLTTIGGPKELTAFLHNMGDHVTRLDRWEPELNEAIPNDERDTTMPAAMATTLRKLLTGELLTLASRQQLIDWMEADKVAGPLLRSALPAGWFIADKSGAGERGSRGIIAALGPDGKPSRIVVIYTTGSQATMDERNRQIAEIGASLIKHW
Assay [11] concerns the target T4, Beta Lactamase. Kind of assay: VIM-2 CCF2 hydrolysis inhibition, assay artifact filter – biochemical, FRET readout, CCF2 substrate, artefact control for selective VIM-2 inhibitor project, dose response (AID 1926).
Assay [12] has as its target T3, Beta-lactamase. The experiment in a line: inhibition of IMP-1 beta-lactamase activity – biochemical, epi-absorbance, selectivity assay for VIM-2 inhibitor project, dose response (AID 1920).
Assay [13] deals with Paired box protein Pax-8 (Homo sapiens, UniProt Q06710). The experiment in a line: PAX8 transcriptional activity inhibition in RMG-I – RMG-I cells, luciferase, cherry-pick, dose response (AID 687027).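 Note: luciferase reporter driven by Pax8 target thyroperoxidase promoter measured by SteadyGlo luminescence.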 The assay is classed as functional, cell-based.
Sequence of Paired box protein Pax-8 (Q06710 whole entry): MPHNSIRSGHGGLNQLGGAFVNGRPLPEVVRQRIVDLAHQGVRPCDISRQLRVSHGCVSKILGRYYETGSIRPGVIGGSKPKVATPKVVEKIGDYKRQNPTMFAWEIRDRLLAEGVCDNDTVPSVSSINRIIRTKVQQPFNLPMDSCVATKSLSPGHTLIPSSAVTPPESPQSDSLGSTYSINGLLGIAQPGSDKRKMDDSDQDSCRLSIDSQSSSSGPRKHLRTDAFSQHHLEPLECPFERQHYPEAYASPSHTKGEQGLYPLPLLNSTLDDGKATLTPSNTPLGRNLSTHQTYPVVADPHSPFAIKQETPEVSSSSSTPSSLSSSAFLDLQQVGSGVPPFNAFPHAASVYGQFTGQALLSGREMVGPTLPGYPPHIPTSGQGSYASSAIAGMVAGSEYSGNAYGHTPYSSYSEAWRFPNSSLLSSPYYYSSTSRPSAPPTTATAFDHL
A short description of assay [14]: non-specific 3'UTR reporter inhibition in Clone20-Shn3RL – cell-based, Renilla luciferase, cherry-picked, counter-screen for Shn3 inhibitor project, dose response (AID 624133). The assay is classed as functional.
In assay [15] the target is Galanin receptor type 3 (Homo sapiens, UniProt O60755). The experiment in a line: Fluorescence-based cell-based primary high throughput dose response assay to identify antagonists of the Galanin Receptor 3 (GalR3). The assay is classed as functional.
Sequence of Galanin receptor type 3 (O60755 whole entry): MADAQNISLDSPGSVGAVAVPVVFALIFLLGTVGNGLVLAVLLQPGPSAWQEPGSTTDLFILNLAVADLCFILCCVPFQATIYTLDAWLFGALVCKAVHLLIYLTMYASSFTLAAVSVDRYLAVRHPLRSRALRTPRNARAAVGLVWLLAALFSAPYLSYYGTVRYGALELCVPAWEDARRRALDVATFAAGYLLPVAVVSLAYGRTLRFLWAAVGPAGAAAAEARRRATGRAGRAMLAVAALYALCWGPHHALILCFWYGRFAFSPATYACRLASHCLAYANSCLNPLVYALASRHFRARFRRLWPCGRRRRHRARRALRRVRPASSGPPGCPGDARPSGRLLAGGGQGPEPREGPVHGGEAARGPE
Assay [16] is described as follows: reduction of Shn3 3'UTR-driven luciferase in osteoblasts – cell-based, Clone20 osteoblasts, firefly luciferase, cherry-picked, dose response (AID 624132).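 Note: firefly luciferase luminescence from reporter carrying the Shn3 3'UTR in osteoblasts.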 The format is functional.
A short description of assay [17]: cells. The format is functional, cell-based. Conditions: HEK-CNG.
Assay [18] deals with T5, Protein skinhead-1 (Caenorhabditis elegans, UniProt P34707).
T5 sequence (P34707 whole entry): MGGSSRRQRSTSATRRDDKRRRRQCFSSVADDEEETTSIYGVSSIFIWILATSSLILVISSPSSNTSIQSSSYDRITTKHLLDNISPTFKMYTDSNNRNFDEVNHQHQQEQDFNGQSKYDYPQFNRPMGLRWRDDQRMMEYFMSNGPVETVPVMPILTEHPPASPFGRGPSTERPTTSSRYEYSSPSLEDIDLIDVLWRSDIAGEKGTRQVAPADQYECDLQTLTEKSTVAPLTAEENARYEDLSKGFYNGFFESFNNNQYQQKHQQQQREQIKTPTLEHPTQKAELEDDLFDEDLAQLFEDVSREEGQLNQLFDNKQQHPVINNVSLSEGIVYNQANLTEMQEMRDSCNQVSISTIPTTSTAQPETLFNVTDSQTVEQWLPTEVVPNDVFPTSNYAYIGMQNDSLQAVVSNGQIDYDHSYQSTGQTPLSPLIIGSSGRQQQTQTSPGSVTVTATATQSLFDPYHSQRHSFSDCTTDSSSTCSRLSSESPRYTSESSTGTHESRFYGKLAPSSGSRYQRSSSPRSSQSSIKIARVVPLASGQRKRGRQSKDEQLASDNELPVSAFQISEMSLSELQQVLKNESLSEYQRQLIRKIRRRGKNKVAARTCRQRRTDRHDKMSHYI
The format is functional.

Assay [19] addresses T6, Genome polyprotein (Hepatitis C virus, UniProt Q2Q167).
T6 sequence (Q2Q167 whole entry): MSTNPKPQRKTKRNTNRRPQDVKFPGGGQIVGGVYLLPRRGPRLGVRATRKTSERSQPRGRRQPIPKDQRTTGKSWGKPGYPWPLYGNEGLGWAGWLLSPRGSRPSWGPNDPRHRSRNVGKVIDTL
Kind of assay: disruption of hepatitis C core self-association – biochemical, TR-FRET, dose response (AID 2159).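 Note: blocks dimerization of HCV core protein measured by TR-FRET between tagged core106 pairs.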 Details: species or system Hepacivirus hominis. (In general: In TR-FRET formats the signal depends on donor and acceptor labels being close together.)

Assay [20] has as its target T6, Genome polyprotein. The experiment in a line: Late stage assay provider counterscreen results for the probe development effort to identify inhibitors of Hepatitis C Virus (HCV) core protein dimerization: Luminescence-based biochemical AlphaScreen assay to identify inhibitors of HCV core dimerization. The assay is classed as functional, Hepacivirus hominis.

Activity calls are given as the source filed them. *1 amine or outer side, *2 acyl side, *3 side chain or, on linkers, in order; H or OH if unused. Where a SMILES comes first, the peptide text is derived from it. Bridges are numbered along the chain shown (N, C = ends). [ ]: non-standard residue; d: D form. ξ: configuration not given here. X1 = CC[C@H](CCC[C@@H](O)[C@@H](C)C(=O)O[C@H](C)[C@@H](C)C/C=C(C)/C(=C\C(=O)[*:1])OC)O[*:2]; NMeξIle = CC[C@H](C)C(NC)C(=O)O; NMeV = CN[C@H](C(=O)O)C(C)C; NMeS = CN[C@@H](CO)C(=O)O
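Throughout, for EC50: target is galanin receptor GalR3 read with a cAMP biosensor in HEK293 cells.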

T2 sequence (Q9P0U3 whole entry, the tested form may be a part): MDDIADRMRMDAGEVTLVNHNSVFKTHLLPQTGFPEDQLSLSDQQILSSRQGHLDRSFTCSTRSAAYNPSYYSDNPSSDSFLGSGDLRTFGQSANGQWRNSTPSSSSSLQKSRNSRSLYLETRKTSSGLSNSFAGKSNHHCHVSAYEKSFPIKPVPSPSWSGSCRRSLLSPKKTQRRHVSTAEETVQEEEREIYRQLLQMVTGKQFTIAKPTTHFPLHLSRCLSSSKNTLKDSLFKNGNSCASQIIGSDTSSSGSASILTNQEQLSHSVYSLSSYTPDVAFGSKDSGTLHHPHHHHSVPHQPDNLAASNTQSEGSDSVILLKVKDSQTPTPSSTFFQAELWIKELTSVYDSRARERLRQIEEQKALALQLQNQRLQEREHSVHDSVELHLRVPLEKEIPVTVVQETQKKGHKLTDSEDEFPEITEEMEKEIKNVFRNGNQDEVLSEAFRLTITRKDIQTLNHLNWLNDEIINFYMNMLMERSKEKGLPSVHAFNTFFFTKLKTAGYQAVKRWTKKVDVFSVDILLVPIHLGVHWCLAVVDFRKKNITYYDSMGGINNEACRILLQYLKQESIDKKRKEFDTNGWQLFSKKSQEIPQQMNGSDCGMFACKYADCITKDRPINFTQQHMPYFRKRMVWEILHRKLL
Sequence of Large T antigen (P03070 whole entry, the tested form may be a part): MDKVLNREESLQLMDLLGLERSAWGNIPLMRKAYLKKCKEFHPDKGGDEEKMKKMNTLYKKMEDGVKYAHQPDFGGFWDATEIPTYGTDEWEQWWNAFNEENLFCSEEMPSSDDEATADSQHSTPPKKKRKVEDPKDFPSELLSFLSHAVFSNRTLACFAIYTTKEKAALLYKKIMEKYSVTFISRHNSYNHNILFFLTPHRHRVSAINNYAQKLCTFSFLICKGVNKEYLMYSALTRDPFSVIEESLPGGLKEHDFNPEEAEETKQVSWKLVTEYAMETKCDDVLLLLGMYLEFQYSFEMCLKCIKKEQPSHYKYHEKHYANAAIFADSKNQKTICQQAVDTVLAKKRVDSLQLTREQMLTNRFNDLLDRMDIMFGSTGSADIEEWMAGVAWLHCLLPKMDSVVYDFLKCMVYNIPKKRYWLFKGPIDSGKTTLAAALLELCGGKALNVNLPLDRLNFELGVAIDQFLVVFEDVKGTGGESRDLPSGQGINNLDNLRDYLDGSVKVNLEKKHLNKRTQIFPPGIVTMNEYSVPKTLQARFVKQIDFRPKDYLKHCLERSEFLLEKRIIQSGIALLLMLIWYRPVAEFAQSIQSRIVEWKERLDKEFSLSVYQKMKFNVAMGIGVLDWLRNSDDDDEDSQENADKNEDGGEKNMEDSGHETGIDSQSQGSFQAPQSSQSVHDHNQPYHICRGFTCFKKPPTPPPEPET
Sequence of Beta-lactamase (Salmonella choleraesuis (strain SC-B67), UniProt Q5J463) (Q5J463 whole entry): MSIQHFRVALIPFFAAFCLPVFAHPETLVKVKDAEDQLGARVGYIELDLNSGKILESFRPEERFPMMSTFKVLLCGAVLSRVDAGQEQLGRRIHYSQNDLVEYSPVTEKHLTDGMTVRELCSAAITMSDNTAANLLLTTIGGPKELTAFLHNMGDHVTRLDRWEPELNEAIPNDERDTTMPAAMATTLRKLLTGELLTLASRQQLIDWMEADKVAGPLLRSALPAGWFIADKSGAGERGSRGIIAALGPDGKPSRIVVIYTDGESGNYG

One may read the AC50 as the midpoint of the concentration-response curve, whichever way the signal moves. On to `COc1ccc(S(=O)(=O)Nc2ccc3c(c2)C(=O)N([C@@H](C)CO)C[C@H](C)[C@H](CN(C)C(=O)Nc2ccc(C(F)(F)F)cc2)OCCCC[C@H](C)O3)cc1`, for which, in assay [1], the AC50 is 24.9 µM (active).

Take `CC.CCCCCCC1CCC/C1=N\NC(N)=S` (stereo not given): the figures for the AC50 in [2], in assay [3] and in [4] were 0.005 µM (active), 0.00737 µM (active) and 2.08 µM (active), respectively.

With `COc1cc(SC#N)ccc1/N=C/c1c(C)[nH]n(-c2ccc(C)cc2C)c1=O`, the IC50 in assay [5] is 24.8 µM (inactive); in [6] it was 7.19 µM (active); in assay [7], 15 µM (active).

Consider `O=[N+]([O-])c1ccccc1/C=N/n1c(S)nnc1C(F)(F)F`, for which the IC50 is > 59.6 µM (inactive) in assay [8]; > 59.6 µM (inactive) in [9]; 9.33 µM (active) in [10]; 3.12 µM (active) in assay [11]; > 59.6 µM (inactive) in [12].

In general, EC50 refers to the concentration at which the effect is half-maximal. Consider `CC[C@@H]1CCC[C@@H](O)[C@@H](C)C(=O)O[C@H](C)[C@@H](C)C/C=C(C)/C(OC)=C\C(=O)N(C)C([C@@H](C)CC)C(=O)N(C)[C@@H](C(C)C)C(=O)N(C)[C@@H](COC)C(=O)N2CCC[C@H]2C(=O)N(C)[C@@H](C(C)C)C(=O)N2CCC[C@H]2C(=O)O1` (stereo not given in full) ([NMeξIle][NMeV][NMeS](Me)P[NMeV]P; linker N-C via X1), for which the AC50 in [13] was < 0.26 µM (active); in assay [14], 0.317 µM (active); in assay [16], < 0.26 µM (active). The IC50 in assay [15] is 0.0171 µM (active); in [18], 57.6 µM (inactive). For the same compound, the EC50 in [17] was > 29.9 µM (inactive).

As to `CC1=C(/C=C/C(C)=C/C=C/C(C)=C/C=C/C=C(C)/C=C/C=C(C)/C=C/C2=C(C)CCCC2(C)C)C(C)(C)CCC1` [BETA CAROTENE], the IC50 in [19] was 29.7 µM (not active); in assay [20], 34.8 µM (inactive).
